Experimental findings from ChEMBL document CHEMBL1914340, “Effect of the leukotriene A4 hydrolase aminopeptidase augmentor 4-methoxydiphenylmethane in a pre-clinical model of pulmonary emphysema” (Bioorg Med Chem Lett, 2011) are described below.

Series [1] deals with Mus musculus. As to the kind of experiment: Effect on intransal elastase-induced LTB4 level in broncho alveolar lavage fluid in ip dosed mouse by ELISA (reference value: 93.1 +/- 26.1 pg/mL). The series is classed as functional, organism-based.
Series [2] deals with Mus musculus. In words: Antiemphysema activity in wild type mouse assessed as shorter chord length at 30 mg/kg, ip qd for 28 days measured after 18 hrs of post mortem by volume displacement technique relative to vehicle-treated control. Set-up: dose 30 mg/kg. The class given is functional, organism-based.
Series [3] in a line: Chemical stability of the compound assessed as degradation at pH 6.8. The class given is physicochemical. The following applies: buffer.
The test system of series [4] is Mus musculus. In words: Antiemphysema activity in wild type mouse assessed as reduction in intranasal elastase-induced lung volume at 30 mg/kg, ip qd for 28 days measured after 18 hrs of post mortem by volume displacement technique relative to vehicle-treated control. The arrangement: dose 30 mg/kg. The series is classed as functional, organism-based.
In series [5] the target is T1, Leukotriene A-4 hydrolase (Homo sapiens) (UniProt P09960).
T1 sequence (whole entry): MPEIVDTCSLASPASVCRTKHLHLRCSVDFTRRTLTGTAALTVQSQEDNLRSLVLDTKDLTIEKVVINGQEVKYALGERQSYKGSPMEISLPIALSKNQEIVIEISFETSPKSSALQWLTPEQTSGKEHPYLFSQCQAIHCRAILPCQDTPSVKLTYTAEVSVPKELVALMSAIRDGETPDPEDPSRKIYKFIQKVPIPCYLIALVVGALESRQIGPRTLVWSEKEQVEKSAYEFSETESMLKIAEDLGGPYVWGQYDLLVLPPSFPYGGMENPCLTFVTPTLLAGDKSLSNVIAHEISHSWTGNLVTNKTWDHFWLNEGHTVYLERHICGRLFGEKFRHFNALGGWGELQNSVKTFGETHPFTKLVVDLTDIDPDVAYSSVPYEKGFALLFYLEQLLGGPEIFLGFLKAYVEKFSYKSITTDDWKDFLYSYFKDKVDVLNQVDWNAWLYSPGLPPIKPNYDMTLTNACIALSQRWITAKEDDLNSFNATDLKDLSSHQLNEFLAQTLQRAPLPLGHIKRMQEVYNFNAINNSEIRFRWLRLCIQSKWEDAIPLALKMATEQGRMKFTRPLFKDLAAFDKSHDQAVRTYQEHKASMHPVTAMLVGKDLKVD
In words: Activation of aminopeptidase activity of LTA4H assessed as compound concentration required to 50% activation using L-alanine-p-nitroanilide as substrate by spectrophotometry.

Series [6] concerns Mus musculus. In words: Antiemphysema activity in wild type mouse assessed as reduction in intranasal elastase-induced lung compliance at 30 mg/kg, ip qd for 28 days by flexivent relative to vehicle-treated control. Set-up: dose 30 mg/kg. The series is classed as functional, organism-based.
The nature of series [7]: Toxicity in mouse. The class given is organism-based. The following applies: in vivo.

Structures are written as SMILES. Active and inactive are the calls of the source. The rule behind the calls is not given here.

With `COc1ccc(Cc2ccccc2)cc1`, in series [1], the outcome was inactive. The outcome in series [2], in series [4] and in series [6] was Active. Besides, the Stability result in series [3] is “Stable”. Besides, the Activity in series [5] came to 50 µM.

As for `COc1ccc(Oc2ccccc2)cc1`, the Stability entry in series [3] is “Unstable”. This compound yielded an MTD in series [7] of 30 mg/kg.
